Source: ChEMBL document CHEMBL3867487, “Discovery of 2'-α-C-Methyl-2'-β-C-fluorouridine Phosphoramidate Prodrugs as Inhibitors of Hepatitis C Virus” (ACS Med Chem Lett, 2016)
pEC50: −log10 of the molar value.

Tests used:
Hepatitis C virus [1] = assay: Antiviral activity against HCV infected in human Huh7 cells assessed as reduction in viral RNA replication after 4 days; type: functional, cell-based, Hepacivirus hominis; settings: Huh-7, 96 h
[2] = Cytotoxicity against human Huh7.5.1 cells after 48 hrs by luciferase reporter gene assay; type: toxicity, cell-based, Huh-7
Hepatitis C virus [3] = assay: Antiviral activity against HCV JFH-1 infected in human HuH7.5.1 cells after 48 hrs by luciferase reporter gene assay; type: functional, cell-based, Hepacivirus hominis; settings: genotype 2a JFH-1, Huh-7, 48 h

| SMILES | pEC50 (Hepatitis C virus [1]) | CC50 at 48 h [2] | pEC50 (Hepatitis C virus [3]) | EC90 (Hepatitis C virus [1]) |
| --- | --- | --- | --- | --- |
| C[C@@]1(F)[C@H](O)[C@@H](CO)O[C@H]1n1ccc(N)nc1=O | 5.35 |  |  |  |
| CC(C)OC(=O)[C@@H](Cc1ccccc1)NP(=O)(OC[C@H]1O[C@@H](n2ccc(=O)[nH]c2=O)[C@@](C)(F)[C@@H]1O)Oc1ccccc1 (some centres undefined) |  | > 100 µM | 4.45 |  |
| CC(C)OC(=O)[C@@H](NP(=O)(OC[C@H]1O[C@@H](n2ccc(=O)[nH]c2=O)[C@@](C)(F)[C@@H]1O)Oc1ccccc1)C(C)C (some centres undefined) |  | > 100 µM | < 4.30 |  |
| CC(C)OC(=O)[C@H](C)NP(=O)(OC[C@H]1O[C@@H](n2ccc(=O)[nH]c2=O)[C@@](C)(F)[C@@H]1O)Oc1ccccc1 (some centres undefined) |  | > 100 µM | 4.47 |  |
| CC(C)OC(=O)CNP(=O)(OC[C@H]1O[C@@H](n2ccc(=O)[nH]c2=O)[C@@](C)(F)[C@@H]1O)Oc1ccccc1 (some centres undefined) |  | > 100 µM | 4.64 |  |
| CSCC[C@H](NP(=O)(OC[C@H]1O[C@@H](n2ccc(=O)[nH]c2=O)[C@@](C)(F)[C@@H]1O)Oc1ccccc1)C(=O)OC(C)C (some centres undefined) |  | > 100 µM | 5.65 |  |
| CC(C)OC(=O)[C@H](Cc1c[nH]c2ccccc12)NP(=O)(OC[C@H]1O[C@@H](n2ccc(=O)[nH]c2=O)[C@@](C)(F)[C@@H]1O)Oc1ccccc1 (some centres undefined) |  | > 100 µM | < 4.30 |  |
| CC(C)OC(=O)[C@H](Cc1ccccc1)NP(=O)(OC[C@H]1O[C@@H](n2ccc(=O)[nH]c2=O)[C@@](C)(F)[C@@H]1O)Oc1ccccc1 (some centres undefined) |  | > 100 µM | 4.48 |  |
| CCCCOC(=O)[C@H](C)NP(=O)(OC[C@H]1O[C@@H](n2ccc(=O)[nH]c2=O)[C@@](C)(F)[C@@H]1O)Oc1ccccc1 (some centres undefined) |  | > 100 µM | < 4.30 |  |
| CSCC[C@@H](NP(=O)(OC[C@H]1O[C@@H](n2ccc(=O)[nH]c2=O)[C@@](C)(F)[C@@H]1O)Oc1ccccc1)C(=O)OC(C)C (some centres undefined) |  | > 100 µM | < 4.30 |  |
| C[C@]1(F)[C@H](O)[C@@H](CO)O[C@H]1n1ccc(=O)[nH]c1=O |  | > 100 µM | 4.83 |  |
| CC(C)OC(=O)[C@@H](Cc1c[nH]c2ccccc12)NP(=O)(OC[C@H]1O[C@@H](n2ccc(=O)[nH]c2=O)[C@@](C)(F)[C@@H]1O)Oc1ccccc1 (some centres undefined) |  | > 100 µM | 6.06 |  |
| C[C@H](NP(=O)(OC[C@H]1O[C@@H](n2ccc(=O)[nH]c2=O)[C@@](C)(F)[C@@H]1O)Oc1ccccc1)C(=O)OCc1ccccc1 (some centres undefined) |  | > 100 µM | < 4.30 |  |
| CCOC(=O)[C@H](C)NP(=O)(OC[C@H]1O[C@@H](n2ccc(=O)[nH]c2=O)[C@@](C)(F)[C@@H]1O)Oc1ccccc1 (some centres undefined) |  | > 100 µM | < 4.30 |  |
| CCCCCOC(=O)[C@H](C)NP(=O)(OC[C@H]1O[C@@H](n2ccc(=O)[nH]c2=O)[C@@](C)(F)[C@@H]1O)Oc1ccccc1 (some centres undefined) |  | > 100 µM | < 4.30 |  |
| CCCCCCOC(=O)[C@H](C)NP(=O)(OC[C@H]1O[C@@H](n2ccc(=O)[nH]c2=O)[C@@](C)(F)[C@@H]1O)Oc1ccccc1 (some centres undefined) |  | > 100 µM | < 4.30 |  |
| CC(C)OC(=O)[C@H](NP(=O)(OC[C@H]1O[C@@H](n2ccc(=O)[nH]c2=O)[C@@](C)(F)[C@@H]1O)Oc1ccccc1)C(C)C (some centres undefined) |  | > 100 µM | 5.74 |  |
| COC(=O)[C@H](C)NP(=O)(OC[C@H]1O[C@@H](n2ccc(=O)[nH]c2=O)[C@@](C)(F)[C@@H]1O)Oc1ccccc1 (some centres undefined) |  | > 100 µM | < 4.30 |  |
| CC(C)OC(=O)[C@@H](C)NP(=O)(OC[C@H]1O[C@@H](n2ccc(=O)[nH]c2=O)[C@@](C)(F)[C@@H]1O)Oc1ccccc1 (some centres undefined) |  | > 100 µM | 4.46 |  |
| C[C@H](NP(=O)(OC[C@H]1O[C@@H](n2ccc(=O)[nH]c2=O)[C@@](C)(F)[C@@H]1O)Oc1ccccc1)C(=O)OC1CCCCC1 (some centres undefined) |  | > 100 µM | < 4.30 |  |
| CCCOC(=O)[C@H](C)NP(=O)(OC[C@H]1O[C@@H](n2ccc(=O)[nH]c2=O)[C@@](C)(F)[C@@H]1O)Oc1ccccc1 (some centres undefined) |  | > 100 µM | < 4.30 |  |
| CC(C)OC(=O)[C@H](C)N[P@](=O)(OC[C@H]1O[C@@H](n2ccc(=O)[nH]c2=O)[C@](C)(F)[C@@H]1O)Oc1ccccc1 [SOFOSBUVIR] |  | > 100 µM | 6.92 | 0.42 µM |
